Reference: article PMC11434980, “Deciphering Chemical Rules for Drug Penetration into Strongyloides” (Pharmaceutics, 2024)
Entries after “also recorded” stand apart in the source; their conditions may differ. Like-named read-outs stand apart in the source and are kept apart here.

Tests used:
[1] = tested on: S. venezuelensis L3s; test: Staining (uptake) of L3 larvae by the dyes; assay type: cell-based, Strongyloides venezuelensis; conditions: for lowest staining concentration (Conc): 72 h
Experimental: (§1) Baerman-obtained S. venezuelensis L3s were rinsed twice with distilled water and counted, and 100 to 150 larvae were placed per well in 96-well flat-bottom culture plates. Larvae were incubated at 28 °C for 30 min to allow adaptation and treated with compounds in the range of 0.5–40 µM for 72 h at 28 °C in a humid atmosphere. Mortality was assessed as the lack of any movement detected during 1 min of observation under an inverted microscope (40×), at 24, 48, and 72 h after treatment. The ability to stain the larvae was pointed out when observed; at 72 h, larvae were collected and washed two times with distilled water and placed in a new well to remove the background color and photographed. Pictures were also taken at 24 and 48 h without cleaning the larvae so as not to interfere with the 72 h readout of the experiment. […] All experiments were conducted in triplicate and at least three different times. The antiparasitic activity of the compounds was expressed as the concentration that inhibited the motility of half of the larvae (immobilization concentration 50, IC50).

[2] = tested on: S. venezuelensis L3s; test: microbe, parasite or virus in culture; conditions: for significant activity against the L3s: L3 motility, 72 h of treatment
Experimental: as §1
A total of 15 dyes were tested against S. venezuelensis L3s at a 20 µM concentration. The activity was determined by the number of larvae lacking motility relative to the total number in the well after 1 min of light excitation at 24, 48, and 72 h after treatment.

[3] = tested on: HeLa (human cervical cancer) cell line; test: Cytotoxicity, MTT method; assay type: cell-based; conditions: for antiproliferative activity against HeLa cells at 10 µM / IC50: MTT; for IC50: HeLa cells, 72 h, read-out: HeLa IC50 (antiproliferative activity / cytotoxicity)
Experimental: (§2) A cytotoxicity test was performed using the HeLa (human cervical cancer) cell line according to the MTT method. Cells were from the ATCC (Manassas, VA, USA). They were cultured at 37 °C in sub-confluent conditions under a 95% humidified atmosphere and 5% CO2 in Dulbecco’s Modified Eagle Medium (DMEM) (Gibco, Whaltman, MA, USA) supplemented with 10% heat-inactivated FBS, 2 mM L-glutamine, 100 U/mL penicillin, and 100 µg/mL streptomycin. […] The antiproliferative activity was measured in triplicate after 72 h using the MTT (3-(4,5-dimethylthiazol-2-yl)-2,5-diphenyltetrazolium bromide) Cell Proliferation Kit (Roche, Boston, MA, USA), following the manufacturer’s specifications. […] The selectivity index (SI = HeLa IC50/L3 IC50) for each compound was calculated to compare the antiparasitic activity with its respective human cell cytotoxicity.

[4] = tested on: parasitic females of S. venezuelensis; test: In vitro activity against adult females (movement categories); assay type: cell-based, Strongyloides venezuelensis; conditions: for Activity against Adults @10 µM 72 h: adult females; for effect on adult females / Activity against parasitic females 1 h / Activity against parasitic females 24 h / Activity against parasitic females 48 h / Activity against parasitic females 72 h: 10 µM, 50–70 worms per well
Experimental: Seven to nine days after infection, the mice or rats were euthanized and the small intestine was removed, sliced longitudinally, minced, and placed in a sedimentation cup wrapped in 8 layers of gauze in phosphate-buffered solution (PBS) for two hours at 37 °C. Parasitic females were collected from the sediment and washed twice with saline solution (NaCl 0.15 mol/L) and twice with Roswell Park Memorial Institute 1640 (RPMI 1640) (Gibco, Whaltman, MA, USA) supplemented with 10% heat-inactivated FBS, 100 µg/mL streptomycin, and 100 U/mL penicillin (Gibco, Whaltman, MA, USA) to avoid contamination during the in vitro assays. After collection, females were placed in 96-well plates with supplemented RPMI medium and kept at 37 °C. We tested three different female population densities to explore the effects on the measured activity: 1–3 females, 10–15 females, and 50–70 females per well. At 24 h after plating, the compounds were applied at 10 µM and the anti-parasitic activity was evaluated at 1, 24, 48, and 72 h after treatment based on movement for 30 s observation periods under the microscope (40×). […] All experiments were conducted in duplicate and at least three different times. […]

[5] = tested on: parasitic females of S. venezuelensis; test: Staining of adult females by the dyes; assay type: cell-based, Strongyloides venezuelensis; conditions: 10 µM; for Staining (Time): time at which staining of females was seen
[6] = Cytotoxicity, MTT method; assay type: cell-based, human; conditions: human; HeLa cells, 72 h, MTT; read-out: HeLa IC50 (antiproliferative activity / cytotoxicity)
Experimental: as §2

[7] = L3S, 72 h, read-out: IC50 72 h (L3)
[8] = read-out: IC50 24 h (immobilization concentration 50 of cultured L3s), L3s, 24 h
[9] = read-out: IC50 48 h (immobilization concentration 50 of cultured L3s), L3s, 48 h
[10] = read-out: IC50 72 h (immobilization concentration 50 of cultured L3s), L3s, 72 h

Oc1cc2c(cc1O)[C@@H]1c3ccc(O)c(O)c3OC[C@]1(O)C2 [Hematoxylin]
Staining 72 h (L3 staining ability) [1]: No | significant activity against the L3s [2]: did not show significant activity | Screening 20 µM 72 h ([2]; L3s, 72 h): No

Cc1ccc2nc(NC(=O)c3ccc(N4CCN(C)CC4)nc3)sc2c1 [Compound 22, N-(6-methylbenzo[d]thiazol-2-yl)-6-(4-methylpiperazin-1-yl)nicotinamide]
IC50 [2, 7]: 8.6 ± 2.3 µM | mortality at 20 µM ([2]; L3S, 72 h, read-out: L3 mortality rate): 100% | Activity against L3 @20 µM 72 h ([2]; L3s, 72 h): Yes | antiproliferative activity against HeLa cells at 10 µM [3]: no antiproliferative activity | Activity against Adults @10 µM 72 h [4]: slightly affecting but not killing; also recorded: Slightly affected

CC[N+](C)(CC)CCC[n+]1c(-c2ccccc2)c2cc(N)ccc2c2ccc(N)cc21.[I-].[I-] [Propidium Iodide]
Staining 72 h (L3 staining ability) [1]: Yes | lowest staining concentration (Conc) [1]: 3 µM | Screening 20 µM 72 h ([2]; L3s, 72 h): Active | IC50 [2, 8]: 14.5 ± 4.6 µM | IC50 [2, 9]: 9.8 ± 3.2 µM | IC50 [2, 10]: 4.3 ± 0.6 µM | effect on adult females [4]: significantly affected | Activity against parasitic females 1 h [4]: Slightly affected | Activity against parasitic females 24 h [4]: Slightly affected | Activity against parasitic females 48 h [4]: Slightly affected | Activity against parasitic females 72 h [4]: Affected/Some deaths | Staining of parasitic females [5]: Yes | staining of adult females [5]: living worms were not strongly stained | Staining (Time) [5]: 72 h

Cc1cc(C(=C2C=CC(=N)C=C2)c2ccc(N)cc2)ccc1N [Fuchsine]
Staining 72 h (L3 staining ability) [1]: Yes | lowest staining concentration (Conc) [1]: 2 µM | Screening 20 µM 72 h ([2]; L3s, 72 h): Active | IC50 [2, 8]: 7.4 ± 1.3 µM | IC50 [2, 9]: 6.8 ± 0.9 µM | IC50 [2, 10]: 3.2 ± 0.4 µM | IC50 [3]: 1 µM | Activity against parasitic females 1 h [4]: Healthy | Activity against parasitic females 24 h [4]: Healthy | Activity against parasitic females 48 h [4]: Healthy | Activity against parasitic females 72 h [4]: Healthy | Staining of parasitic females [5]: No | staining of adult females [5]: did not stain

Brilliant Cresyl Blue
Staining 72 h (L3 staining ability) [1]: Yes | lowest staining concentration (Conc) [1]: 2.5 µM | Screening 20 µM 72 h ([2]; L3s, 72 h): Active | IC50 [2, 8]: 14 ± 4.1 µM | IC50 [2, 9]: 9.6 ± 0.6 µM | IC50 [2, 10]: 6.8 ± 0.7 µM | IC50 [3]: > 250 µM | effect on adult females [4]: significantly affected | Activity against parasitic females 1 h [4]: Healthy | Activity against parasitic females 24 h [4]: Slightly affected | Activity against parasitic females 48 h [4]: Affected | Activity against parasitic females 72 h [4]: Affected | Staining of parasitic females [5]: Yes | staining of adult females [5]: stained adult females after 24 h in some localized structures | Staining (Time) [5]: 24 h

CC(=O)Oc1ccc2c(c1)Oc1cc(OC(C)=O)ccc1C21OC(=O)c2ccccc21 [Fluorescein Diacetate]
Staining 72 h (L3 staining ability) [1]: No | significant activity against the L3s [2]: did not show significant activity | Screening 20 µM 72 h ([2]; L3s, 72 h): No

Nc1c(/N=N/c2ccc(-c3ccc(/N=N/c4cc(S(=O)(=O)O)c5ccccc5c4N)cc3)cc2)cc(S(=O)(=O)O)c2ccccc12 [Congo Red]
Staining 72 h (L3 staining ability) [1]: No | significant activity against the L3s [2]: did not show significant activity | Screening 20 µM 72 h ([2]; L3s, 72 h): No

O=[N+]([O-])c1ccc2c(N=Nc3ccc4ccccc4c3O)c(O)cc(S(=O)(=O)[O-])c2c1.[Na+] [Eriochrome Black T]
Staining 72 h (L3 staining ability) [1]: No | significant activity against the L3s [2]: did not show significant activity | Screening 20 µM 72 h ([2]; L3s, 72 h): No | IC50 [2, 10]: > 40 µM

COC(=O)Nc1nc2ccc(C(=O)c3ccccc3)cc2[nH]1 [Mebendazole]
Screening 20 µM 72 h ([2]; L3s, 72 h): No | activity against L3 at 40 µM ([2]; L3s): no activity | IC50 at 72 h [6]: 0.2 µM | selectivity index (SI = HeLa IC50/L3 IC50) [3]: < 0.005 | effect on adult females [4]: slightly reduced movement | Activity against parasitic females 1 h [4]: Healthy | Activity against parasitic females 24 h [4]: Healthy | Activity against parasitic females 48 h [4]: Slightly affected | Activity against parasitic females 72 h [4]: Slightly affected

Oc1ccc2ccccc2c1N=Nc1ccc(N=Nc2ccccc2)cc1 [Sudan III]
Staining 72 h (L3 staining ability) [1]: No | significant activity against the L3s [2]: did not show significant activity | Screening 20 µM 72 h ([2]; L3s, 72 h): No | IC50 [2, 10]: > 40 µM

Cc1c(C(=O)O)c(O)cc2c1C(=O)c1c(O)c(C3O[C@H](CO)[C@@H](O)[C@H](O)[C@H]3O)c(O)c(O)c1C2=O (stereo in doubt) [Carmine]
Staining 72 h (L3 staining ability) [1]: No | significant activity against the L3s [2]: did not show significant activity | Screening 20 µM 72 h ([2]; L3s, 72 h): No

CCCSc1ccc2nc(NC(=O)OC)[nH]c2c1 [Albendazole]
Screening 20 µM 72 h ([2]; L3s, 72 h): No | activity against L3 at 40 µM ([2]; L3s): no activity | IC50 at 72 h [6]: 0.3 µM | selectivity index (SI = HeLa IC50/L3 IC50) [3]: < 0.0075 | effect on adult females [4]: slightly reduced movement | Activity against parasitic females 1 h [4]: Healthy | Activity against parasitic females 24 h [4]: Healthy | Activity against parasitic females 48 h [4]: Slightly affected | Activity against parasitic females 72 h [4]: Slightly affected

CCCCCCCCCCCCCCCCCCOCC(COP(=O)([O-])OCC[N+](C)(C)C)OC (stereo not drawn) [Edelfosine]
Screening 20 µM 72 h ([2]; L3s, 72 h): No

O=C1/C(=C2\Nc3ccc(S(=O)(=O)[O-])cc3C2=O)Nc2ccc(S(=O)(=O)[O-])cc21.[Na+].[Na+] [Indigo Carmine]
Staining 72 h (L3 staining ability) [1]: No | significant activity against the L3s [2]: did not show significant activity | Screening 20 µM 72 h ([2]; L3s, 72 h): No | IC50 [2, 10]: > 40 µM

Cc1ccc2nc(NC(=O)c3cccnc3)sc2c1 [Compound 20, N-(6-methylbenzo[d]thiazol-2-yl)nicotinamide]
IC50 [2, 7]: > 20 µM | Activity against L3 @20 µM 72 h ([2]; L3s, 72 h): did not show any activity and no in vitro activity and No | antiproliferative activity against HeLa cells at 10 µM [3]: no antiproliferative activity | Activity against Adults @10 µM 72 h [4]: did not show any potency; also recorded: Healthy

Cc1cc(-c2ccc(/N=N/c3c(S(=O)(=O)O)cc4cc(S(=O)(=O)O)cc(N)c4c3O)c(C)c2)ccc1/N=N/c1c(S(=O)(=O)O)cc2cc(S(=O)(=O)O)cc(N)c2c1O [Trypan Blue]
Staining 72 h (L3 staining ability) [1]: Yes | lowest staining concentration (Conc) [1]: 20 µM | significant activity against the L3s [2]: did not show significant activity | IC50 at 72 h [6]: > 10 µM

CN(C)c1ccc(N=Nc2ccc(S(=O)(=O)[O-])cc2)cc1.[Na+] [Methyl Orange]
Staining 72 h (L3 staining ability) [1]: No | significant activity against the L3s [2]: did not show significant activity | Screening 20 µM 72 h ([2]; L3s, 72 h): No | IC50 [2, 10]: > 40 µM
